Values joined by “and” are separate entries in the source; they are usually repeats but may differ in a detail not shown here. Identical values can stand only once.
Experiments:
[1] = tested on: PBMC from healthy, seropositive donors; type: cell-based, human
[2] = tested on: HLA-DRB1*09; type: binding, human; parameters: reference not given here; conditions: 24–72 h at 37°C
[3] = tested on: HLA-DRB1*07; type: binding, human; parameters: reference not given here; conditions: 24–72 h at 37°C
[4] = biological target: T1, HLA-DRB1*11:01 (Homo sapiens, UniProt P01903+P01911, A100R/A169T/A87E/I96F/K41T/L162R/M171V/P40S/Q125H/Q178H/Q39Y/Q99D/R42S/S66Y/T262R/V115G/W38E); type: binding; parameters: reference not given here; conditions: 24–72 h at 37°C
T1 construct: Purified HLA-DR heterodimers derived from the relevant EBV B-lymphoblastoid cell lines; endogenous in cells
T1 sequence (P01903 26-254, other chains not shown): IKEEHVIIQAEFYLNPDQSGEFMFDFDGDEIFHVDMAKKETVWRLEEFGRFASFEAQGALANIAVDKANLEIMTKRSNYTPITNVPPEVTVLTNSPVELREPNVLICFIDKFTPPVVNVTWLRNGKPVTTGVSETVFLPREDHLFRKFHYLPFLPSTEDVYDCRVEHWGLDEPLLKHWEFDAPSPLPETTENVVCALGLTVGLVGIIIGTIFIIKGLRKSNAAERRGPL

[5] = biological target: T2, HLA-DRB1*15:02 (Homo sapiens, UniProt P01903+P01911, V115G); type: binding; parameters: reference not given here; conditions: 24–72 h at 37°C
T2 construct: Purified HLA-DR heterodimers derived from the relevant EBV B-lymphoblastoid cell lines; endogenous in cells
T2 sequence (P01903 26-254, other chains not shown): as above

[6] = biological target: HLA-DRB1*12:02 (Homo sapiens, UniProt P01903+P01911, A100R/A169T/D57E/D86V/F55L/H45Y/I96F/K41T/L162R/M171V/P40S/Q125H/Q178H/Q39Y/Q99D/R42G/S66L/T262R/V114A/V67L/W38E/Y59H/Y61H/Y89S); type: binding; parameters: reference not given here; conditions: 24–72 h at 37°C
[7] = biological target: T3, HLA-DRB1*15:01 (Homo sapiens, UniProt P01903+P01911); type: binding; parameters: reference not given here; conditions: 24–72 h at 37°C
T3 construct: Purified HLA-DR heterodimers derived from the relevant EBV B-lymphoblastoid cell lines; endogenous in cells

[8] = tested on: HLA-DRB1*04; type: binding, human; parameters: reference not given here; conditions: 24–72 h at 37°C
[9] = tested on: HLA-DQB1*0602 and HLA-DQB1*0302; conditions: cited from earlier work
[10] = tested on: HLA class-II heterodimers (HLA DRB1*04, 07, 09, 11:01, 12:02, 15:01, 15:02); type: binding, human
[11] = tested on: PBMC from melioidosis patients and control donors; type: cell-based, human

Sequence	% Responders [1]	Elispot, Median SFC/10^6 PBMCs of HLA donors [1]	Median SFC/10^6 PBMCs (IFN-g) [1]	HLA binding, relative HLA binding affinity [2]	HLA binding, relative HLA binding affinity [3]	HLA binding, relative HLA binding affinity [4]	HLA binding, relative HLA binding affinity [5]	HLA binding, relative HLA binding affinity [6]	HLA binding, relative HLA binding affinity [7]	HLA binding, relative HLA binding affinity [8]	Presentation through HLA-DQ [9]	HLA class-II binding across the panel (in words) [10]	IFNγ response, acute septicemic melioidosis compared with recovered individuals (Figure 3) [11]	IFNγ response compared between cohorts (Figure 2) [11]
AAKIQGMNVEVVVATGYTDR [BPSL2522_P13]	100%	362 SFC/10^6 PBMCs and 488 SFC/10^6 PBMCs and 487 SFC/10^6 PBMCs and 578 SFC/10^6 PBMCs and 351 SFC/10^6 PBMCs and 534 SFC/10^6 PBMCs	291	42	11	23	667	5	5	–	–	–	–	–
KDFTFVCPTEIVEFAKLAKQ [BPSL2096_P6]	82.4% and 82%	–	333	18	0.3	43	222	25	7	9	can be presented also through HLA-DQB1*0602 and HLA-DQB1*0302	moderate to high affinity	lower during acute disease	–
NQNPQITASVVGYTDSTGSA [BPSL0999_P14]	95.7% and 96%	583 SFC/10^6 PBMCs and 417 SFC/10^6 PBMCs and 601 SFC/10^6 PBMCs and 460 SFC/10^6 PBMCs and 567 SFC/10^6 PBMCs and 588 SFC/10^6 PBMCs and 489 SFC/10^6 PBMCs	373	37	30.2	189	542	>136	1	33	–	–	–	–
PAGKQKLDELAAKIQGMNVE [BPSL2522_P12]	97.1% and 97%	–	308	>689	333	77	>3 333	40	>270	>145	–	–	–	–
RGVAANRLSAQGMGASNPIA [BPSL0999_P18]	93.6% and 94%	617 SFC/10^6 PBMCs and 415 SFC/10^6 PBMCs and 456 SFC/10^6 PBMCs and 487 SFC/10^6 PBMCs and 634 SFC/10^6 PBMCs and 616 SFC/10^6 PBMCs and 441 SFC/10^6 PBMCs	375	367	11	72	>3 333	14	157	82	–	–	–	–
VPLTAPTANDTPLADDSVVR [BPSS1599_P33]	83.3%	–	147	–	–	–	–	–	–	–	–	–	–	–
VRPAFIEALGDAARATGLPG [BPSS1525_P15]	89.7%	–	220	–	–	–	–	–	–	–	–	–	–	–
VVVATGYTDRIGSDKYNDRL [BPSL2522_P14]	100%	–	290	>689	>336	>278	1 826	>136	10	>145	–	–	lower during acute disease	lower in recovered patients than in seropositive healthy donors
WARNGSNVRYLLVVEPGATL [BPSS1599_P30]	91.7%	–	155	–	–	–	–	–	–	–	–	–	–	–
WKSQLRSDEVALPIARVAGR [BPSS0530_P17]	97.7%	–	274	–	–	–	–	–	–	–	–	–	–	–
WSDGMLIETQHFQQLERHLA [BPSS0530_P2]	90.7%	–	260	–	–	–	–	–	–	–	–	–	–	–
WWALRPVERRLSPRAALIAA [BPSS1599_P19]	95.8%	–	169	–	–	–	–	–	–	–	–	–	–	–
YLVSKGVPANKVYTEGKGKR [BPSL2522_P17]	82.9%	–	312	–	–	–	–	–	–	–	–	–	–	–
